From PubChem BioAssay (NCI)
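96-well plates; 48 h exposure; 5 concentrations. Endpoints by linear interpolation between flanking doses. Not reached: highest tested concentration assigned. GI50: concentration for 50% inhibition of growth. At the TGI there is no net growth.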

Experiments:
Experiment in all cases: NCI anticancer screen, dose series, 48 h
[1] = tested on: 786-0 renal
[2] = tested on: A498 renal
[3] = tested on: A549 NSCLC
[4] = tested on: ACHN renal
[5] = tested on: BT-549 breast
[6] = tested on: CAKI-1 renal
[7] = tested on: CCRF-CEM leukemia
[8] = tested on: COLO 205 colon
[9] = tested on: DU-145 prostate
[10] = tested on: EKVX NSCLC
[11] = tested on: HCC-2998 colon
[12] = tested on: HCT-116 colon
[13] = tested on: HL-60(TB) leukemia
[14] = tested on: HOP-62 NSCLC
[15] = tested on: HOP-92 NSCLC
[16] = tested on: HS 578T breast
[17] = tested on: HT29 colon
[18] = tested on: IGROV1 ovarian
[19] = tested on: K-562 leukemia
[20] = tested on: KM12 colon
[21] = tested on: LOX IMVI melanoma
[22] = tested on: M14 melanoma
[23] = tested on: MALME-3M melanoma
[24] = tested on: MCF7 breast
[25] = tested on: MDA-MB-231 breast
[26] = tested on: MDA-MB-435
[27] = tested on: MOLT-4 leukemia
[28] = tested on: NCI-H226 lung
[29] = tested on: NCI-H23 lung
[30] = tested on: NCI-H460 lung
[31] = tested on: NCI-H522 lung
[32] = tested on: NCI/ADR-RES ovarian
[33] = tested on: OVCAR-3 ovarian
[34] = tested on: OVCAR-4 ovarian
[35] = tested on: OVCAR-5 ovarian
[36] = tested on: OVCAR-8 ovarian
[37] = tested on: PC-3 prostate
[38] = tested on: RPMI-8226 leukemia
[39] = tested on: RXF 393 renal
[40] = tested on: SF-268 CNS
[41] = tested on: SF-295 CNS
[42] = tested on: SF-539 CNS
[43] = tested on: SK-MEL-2 melanoma
[44] = tested on: SK-MEL-28 melanoma
[45] = tested on: SK-MEL-5 melanoma
[46] = tested on: SK-OV-3 ovarian
[47] = tested on: SN12C renal
[48] = tested on: SNB-19 CNS
[49] = tested on: SNB-75 CNS
[50] = tested on: SR leukemia
[51] = tested on: SW-620 colon
[52] = tested on: T-47D breast
[53] = tested on: TK-10 renal
[54] = tested on: U251 CNS
[55] = tested on: UACC-257 melanoma
[56] = tested on: UACC-62 melanoma
[57] = tested on: UO-31 renal
[58] = tested on: HCT-15 colon

O=C(CCl)Nc1ccc(Cc2ccc(NC(=O)CCl)cc2)cc1
GI50 [1]: 2090 nM | TGI [1]: 5100 nM | GI50 [2]: 18700 nM | TGI [2]: 94100 nM | GI50 [3]: 4010 nM | TGI [3]: > 100000 nM | GI50 [4]: 1560 nM | TGI [4]: 3030 nM | GI50 [5]: 1400 nM | TGI [5]: 4690 nM | GI50 [6]: 1620 nM | TGI [6]: 3380 nM | GI50 [7]: 470 nM | TGI [7]: 3010 nM | GI50 [8]: 1970 nM | TGI [8]: 4120 nM | GI50 [9]: 2850 nM | TGI [9]: 11000 nM | GI50 [10]: 2230 nM | TGI [10]: 5780 nM | GI50 [11]: 1800 nM | TGI [11]: 3470 nM | GI50 [12]: 440 nM | TGI [12]: 1030 nM | GI50 [13]: 2070 nM | TGI [13]: 4840 nM | GI50 [14]: 2380 nM | TGI [14]: 6100 nM | GI50 [15]: 2090 nM | TGI [15]: 5120 nM | GI50 [16]: 5370 nM | TGI [16]: > 100000 nM | GI50 [17]: 1730 nM | TGI [17]: 4470 nM | GI50 [18]: 1430 nM | TGI [18]: 4060 nM | GI50 [19]: 1670 nM | TGI [19]: > 100000 nM | GI50 [20]: 1570 nM | TGI [20]: 3170 nM | GI50 [21]: 784 nM | TGI [21]: 2350 nM | GI50 [22]: 1230 nM | TGI [22]: 3200 nM | GI50 [23]: 1390 nM | TGI [23]: 3170 nM | GI50 [24]: 1540 nM | TGI [24]: > 100000 nM | GI50 [25]: 1540 nM | TGI [25]: 5060 nM | GI50 [26]: 1760 nM | TGI [26]: 4310 nM | GI50 [27]: 1440 nM | TGI [27]: 6320 nM | GI50 [28]: 3140 nM | TGI [28]: > 100000 nM | GI50 [29]: 1770 nM | TGI [29]: 4520 nM | GI50 [30]: 2090 nM | TGI [30]: 4750 nM | GI50 [31]: 1470 nM | TGI [31]: 3500 nM | GI50 [32]: 2840 nM | TGI [32]: > 100000 nM | GI50 [33]: 1170 nM | TGI [33]: 2480 nM | GI50 [34]: 1420 nM | TGI [34]: 3440 nM | GI50 [35]: 2270 nM | TGI [35]: 5520 nM | GI50 [36]: 3170 nM | TGI [36]: > 100000 nM | GI50 [37]: 2130 nM | TGI [37]: 6420 nM | GI50 [38]: 1670 nM | TGI [38]: 4780 nM | GI50 [39]: 1430 nM | TGI [39]: 3070 nM | GI50 [40]: 1830 nM | TGI [40]: 9560 nM | GI50 [41]: 3550 nM | TGI [41]: 19700 nM | GI50 [42]: 1660 nM | TGI [42]: 3280 nM | GI50 [43]: 2460 nM | TGI [43]: 7540 nM | GI50 [44]: 2150 nM | TGI [44]: 6060 nM | GI50 [45]: 1370 nM | TGI [45]: 2720 nM | GI50 [46]: 18000 nM | TGI [46]: > 100000 nM | GI50 [47]: 2380 nM | TGI [47]: > 100000 nM | GI50 [48]: 1800 nM | TGI [48]: 5140 nM | TGI [49]: > 29300 nM | GI50 [50]: 704 nM | TGI [50]: 5560 nM | GI50 [51]: 1920 nM | TGI [51]: 5250 nM | GI50 [52]: 1650 nM | TGI [52]: 4670 nM | GI50 [53]: 4170 nM | TGI [53]: > 75000 nM | GI50 [54]: 1400 nM | TGI [54]: 2980 nM | GI50 [55]: 2780 nM | TGI [55]: 9460 nM | GI50 [56]: 1530 nM | TGI [56]: 3340 nM | GI50 [57]: 2770 nM | TGI [57]: > 23400 nM

C=C1C(=O)O[C@H]2[C@H]1CC/C(COC(=O)/C=C\C(=O)NCc1ccc(Cn3c(=O)sn(-c4ccc(Cl)cc4)c3=O)cc1)=C\CC[C@@]1(C)O[C@@H]21
GI50 [1]: 658 nM | TGI [1]: 1390 nM | GI50 [2]: 741 nM | TGI [2]: 1430 nM | GI50 [3]: 871 nM | TGI [3]: 2350 nM | GI50 [4]: 404 nM | TGI [4]: 1030 nM | GI50 [5]: 591 nM | TGI [5]: 1510 nM | GI50 [6]: 328 nM | TGI [6]: 1030 nM | GI50 [7]: 173 nM | TGI [7]: 6650 nM | GI50 [8]: 564 nM | TGI [8]: 1590 nM | GI50 [9]: 638 nM | TGI [9]: 1300 nM | GI50 [10]: 809 nM | TGI [10]: 1580 nM | GI50 [11]: 896 nM | TGI [11]: 1700 nM | GI50 [12]: 144 nM | TGI [12]: 708 nM | GI50 [58]: 331 nM | TGI [58]: 1470 nM | GI50 [13]: 696 nM | TGI [13]: 2520 nM | GI50 [14]: 2120 nM | TGI [14]: 7630 nM | GI50 [15]: 569 nM | TGI [15]: 1350 nM | GI50 [16]: 954 nM | TGI [16]: 2640 nM | GI50 [17]: 369 nM | TGI [17]: 1520 nM | GI50 [18]: 638 nM | TGI [18]: 1360 nM | GI50 [19]: 409 nM | TGI [19]: 50000 nM | GI50 [20]: 891 nM | TGI [20]: 1820 nM | GI50 [21]: 193 nM | TGI [21]: 789 nM | GI50 [22]: 639 nM | TGI [22]: 1480 nM | GI50 [23]: 852 nM | TGI [23]: 1630 nM | GI50 [24]: 360 nM | TGI [24]: 1410 nM | GI50 [25]: 758 nM | TGI [25]: 1760 nM | GI50 [26]: 647 nM | TGI [26]: 1330 nM | GI50 [27]: 499 nM | TGI [27]: 3270 nM | GI50 [28]: 1240 nM | TGI [28]: 4280 nM | GI50 [29]: 884 nM | TGI [29]: 1880 nM | GI50 [30]: 811 nM | TGI [30]: 1740 nM | GI50 [31]: 632 nM | TGI [31]: 1550 nM | GI50 [32]: 1250 nM | TGI [32]: 5060 nM | GI50 [33]: 223 nM | TGI [33]: 821 nM | GI50 [34]: 685 nM | TGI [34]: 1370 nM | GI50 [35]: 834 nM | TGI [35]: 1750 nM | GI50 [36]: 691 nM | TGI [36]: 2300 nM | GI50 [37]: 599 nM | TGI [37]: 1390 nM | GI50 [38]: 270 nM | TGI [38]: 2050 nM | GI50 [39]: 476 nM | TGI [39]: 1090 nM | GI50 [40]: 710 nM | TGI [40]: 1430 nM | GI50 [41]: 3110 nM | TGI [41]: 8800 nM | GI50 [42]: 748 nM | TGI [42]: 1430 nM | GI50 [43]: 904 nM | TGI [43]: 1890 nM | GI50 [44]: 816 nM | TGI [44]: 1550 nM | GI50 [45]: 825 nM | TGI [45]: 1520 nM | GI50 [46]: 4040 nM | TGI [46]: 10700 nM | GI50 [47]: 666 nM | TGI [47]: 1630 nM | GI50 [48]: 831 nM | TGI [48]: 1670 nM | GI50 [49]: 623 nM | TGI [49]: 1310 nM | GI50 [50]: 240 nM | TGI [50]: 12300 nM | GI50 [51]: 242 nM | TGI [51]: 915 nM | GI50 [52]: 881 nM | TGI [52]: 2150 nM | GI50 [53]: 775 nM | TGI [53]: 1500 nM | GI50 [54]: 713 nM | TGI [54]: 1600 nM | GI50 [55]: 800 nM | TGI [55]: 1720 nM | GI50 [56]: 724 nM | TGI [56]: 1470 nM | GI50 [57]: 515 nM | TGI [57]: 1100 nM
